Row | SMILES | melting point [°C]
1 | COc1cc2nc(N3CCN(c4nc5ncccc5o4)CC3)nc(N)c2cc1OC | > 250
2 | Cc1c(C)c2c(c(C)c1NC(=O)CC(C)(C)C)C(c1ccc(C3OCCO3)cc1)CO2 (stereo not drawn) | 193 to 194
3 | CC(C)(C)OC(=O)C(C1NC(C(=O)O)C2(CCOCC2)S1)N1C(=O)c2ccccc2C1=O (stereo not drawn) | 199 to 200
4 | Cc1ccccc1-c1ccc(Cl)cc1C(=O)O | 135 to 137
5 | CCOCCCOc1ccc(-c2ccc3c(c2)C=C(C(=O)Nc2ccc(CN(C)C4CCOCC4)cc2)CCS3(=O)=O)cc1Cl | 182 to 183
6 | COCC1CCCN(/C(C)=C(/C#N)C(N)=S)C1 (stereo not drawn) | 151 to 152
7 | c1csc(OCCOc2ccc3ccccc3c2)c1 | 129 to 130
8 | O=C1C[C@@H]2O[C@@H](CS(=O)(=O)Cc3ccccc3)CN12 (racemic) | 137 to 145
9 | Cc1ccc2c(c1)CCOC2CCN1CCN(c2ccc(S(N)(=O)=O)cc2)CC1 (stereo not drawn) | 221 to 222
10 | COc1ccc(S(N)(=O)=O)cc1C(O)C(C)N=[N+]=[N-] (stereo not drawn) | 109 to 110
11 | CN(C)c1cccc(Cc2cc3cccc(-c4cccc(C(=O)NCC(N)=O)c4)c3s2)c1 | 149 to 151
12 | COc1cc(C=CC(=O)CCc2ccco2)ccc1O | 82 to 84
13 | CN1CCCC1CCOc1ccc(-c2nnc(CSCCOc3ccccc3)o2)cc1 (stereo not drawn) | 46 to 50
14 | Fc1ccc(C(=C2SCSCS2)c2ccc(F)cc2)cc1 | 153 to 154
15 | CCOC(=O)NN=Cc1c[nH]c(C)n1 | 210 to 212
16 | O=S(=O)(Nc1ccc2[nH]c3c(c2c1)CCNC3)c1c(Cl)nc2sccn12 | 242 to 244
17 | COc1cccc2c1CCCC2=NNc1nc(-c2ccc(F)cc2)cs1 | 198
18 | O=C(O)CSc1nc(-c2ccccc2)ns1 | 97
19 | CC(C)n1c(=O)nc(N(C)C)[nH]c1=O | 213 to 214
20 | CCN1c2ncc(COc3cccc(OC)c3)cc2C(=O)N(C)c2ccc(Cl)nc21 | 95 to 97
21 | CCCOC(=O)c1cc(OC)c(OC)c(OCC)c1-c1c(C(=O)OC)cc(OC)c2c1OCO2 | 74.5 to 76
22 | O=C1CCN(C2c3ccccc3COc3ccc(Br)cc32)CC1 (stereo not drawn) | 196 to 200
23 | CCC(C)NC(=O)OC1c2ccccc2C(=O)N1c1ccc2ccc(Cl)nc2n1 (stereo not drawn) | 220 to 222
24 | COc1ccc(-c2nc(-c3cccn3C)[nH]c2-c2ccc(OC)cc2)cc1 | 110
25 | CCOC(=O)[C@@H]1C[C@H](C(=O)O)Nc2cc(Cl)cc(Cl)c21 (relative stereo) | 160 to 162

Row | SMILES | melting point [°C]
26 | O=C1OC(=O)c2c1cccc2-c1ccccc1 | 148 to 149
27 | CCCc1c(OCc2cc(Br)cn3c(=O)c(CCC(=O)O)cnc23)ccc(C(C)=O)c1O | 239 to 242
28 | CNC(=O)Oc1cccc(NC(=O)CC(C)=O)c1 | 142
29 | COc1ccc(C(=C2CCN(CCc3c(C)nc4scc(C)n4c3=O)CC2)c2ccc(F)cc2)cc1 | 140
30 | Cc1ccc2c(c1)C(C(=O)Nc1c(Br)cccc1Br)c1ccccc1CO2 (stereo not drawn) | 184
31 | CC(=O)Nc1ccc(-c2cc(C(=O)c3cccnc3)sc2N2CCOCC2)cc1 | 144
32 | Cc1cc(-c2ccc(C(F)(F)F)cc2)nc2c(C(=O)Nc3cccc(S(C)(=O)=O)c3)cnn12 | 198 to 200
33 | CCOc1nc(C(F)(F)F)cc(=O)n1-c1cc(OC)c(Br)cc1F | 126 to 128
34 | O=C(O)c1n[nH]c2ncccc12 | 175 to 176
35 | COc1cc(OC)c(NC(=O)C(c2ccccc2)n2nnc(C(c3ccccc3)c3ccccc3)n2)c(OC)c1 (stereo not drawn) | 114 to 117
36 | Cn1cc(-c2ccc(C(=O)N3Cc4cccn4Cc4ccccc43)cc2)cn1 | 200 to 201
37 | COc1ccc(N2CCN(c3c(C)c(C)c4c(c3C)C(C(C)(C)C)C(C)(C)O4)CC2)cc1 (stereo not drawn) | 144 to 146
38 | CCCCOc1ccc(-c2ccc3c(c2)C=C(C(=O)Nc2ccc(C(O)c4ccccn4)cc2)CCS3(=O)=O)cc1 (stereo not drawn) | 142 to 145
39 | COc1cc(C(C)=O)cc(OC)c1OCCCC(=O)O | 122 to 124
40 | NS(=O)(=O)c1ccc(NC(=O)C(=O)N2CCC(Cc3ccccc3)CC2)cc1 | 184 to 187
41 | CCC12CCC(=O)C=C1c1c(cc(OCC(=O)OCC(O)CO)c(Cl)c1Cl)C2 (stereo not drawn) | 135 to 138
42 | O=C(CCc1ccccc1)N[C@H](Cc1ccc(C(F)(F)F)cc1)[C@@H](O)c1ccc(Cl)nc1 (racemic) | 149 to 150
43 | C/C=C/c1c(N)nc(-c2ccc(Cl)c(OC)c2F)nc1C(=O)OC | 133 to 135
44 | O=C(O)Cc1ccc2cc(OCc3ccc4ccccc4n3)ccc2c1 | 199 to 202
45 | O=[N+]([O-])c1ccc2nc(Cl)[nH]c2c1 | 235 to 237
46 | CC(C)=CC(=O)Nc1ccc2ncnc(Nc3cccc(Br)c3)c2c1 | 300 to 301
47 | Cn1c2ccc(Cl)cc2c2c3ccccc3c(OCC3CC3)nc21 | 141 to 142
48 | C[C@H](N)C(c1ccccc1)c1ccccc1 | 76 to 77
49 | Cc1nc(-c2ccccc2)nc(OCC(=O)N(CC2CC2)c2ccccc2)c1C | 119 to 121
50 | CN(C)CCc1ccc(OCCCN2C(=O)c3ccccc3C2=O)cc1 | 81 to 82

Row | SMILES | melting point [°C]
51 | O=C(N=CNO)c1cc2c(cn1)[nH]c1ccccc12 | 235 to 240
52 | CCCn1c(N)cc(=O)n1-c1ccccc1 | 183 to 185
53 | COc1ccccc1CN1CCCc2cc(OCc3ccccc3)c(OC)cc2C1 | 105 to 106
54 | Cn1nc(C#N)c(Nc2cc(Cl)c(Cl)cc2[N+](=O)[O-])n1 | 148 to 150
55 | COC(=O)CCOc1ccc(C=O)cc1 | 48 to 50
56 | S=C=Nc1ccc2oc(-c3ccc(CN4CCOCC4)s3)nc2c1 | 135 to 138
57 | CCCc1cn2c(=O)c(C(=O)OCC)cnc2c2cc(OC)ccc12 | 187 to 188
58 | NC1=NS(=O)(=O)Nc2cccc(OCC3(NC(=O)c4ccncc4)CCCC3)c21 | > 250
59 | O=C(NCCc1ccccc1)c1c(Cl)ccc2nc(N3CCC(C(=O)O)CC3)ccc12 | 260 to 262
60 | O=C(CCCCC(=O)Oc1ccc(NC(=O)c2ccccc2)cc1)CC1CC(O)CC1=O (stereo not drawn) | 143 to 146
61 | N#Cc1cnc2ccc(N)cc2c1Nc1ccc(F)c(Br)c1 | 210 to 212
62 | O=C(Cn1c(-c2ccc(Cl)cc2)nc2cccnc21)N1CCOCC1 | 213 to 216
63 | COC(=O)COc1ccc(SCc2cc(-c3ccc(Cl)cc3)on2)cc1C | 79 to 80
64 | Oc1ccc2c(c1O)OCC(c1cccc(Cl)c1)C2 (stereo not drawn) | 99 to 101
65 | COc1ccc(-c2c(Cl)c(CNC(=O)Cn3cncn3)nc3sc4c(c23)CCN(Cc2ccccc2)C4)cc1OC | 101 to 102
66 | CN(C)C(=O)Nc1ccc(Oc2ccc3sncc3c2)cc1 | 156
67 | CC(C)NNC(=O)c1ccc(Cl)c(Cl)c1 | 112 to 115
68 | CC[C@H](C)[C@H](NC(=O)OCc1ccccc1)C(=O)Nc1nncs1 (racemic) | 145 to 149
69 | COc1cc(C(=O)OCCCCBr)ccc1O | 83 to 88
70 | N#Cc1cnc2cc(Cl)c([N+](=O)[O-])cc2c1Nc1ccc(F)c(Cl)c1 | 259 to 263
71 | O=c1c2ccccc2sn1-c1ccccc1 | 140 to 141
72 | CSc1cc2cc(-c3ccccc3)ccc2cc1OS(=O)(=O)C(F)(F)F | 79.4 to 80.3
73 | Sc1nsnc1-c1c(Cl)cccc1Cl | 91 to 94
74 | C#CCCN1CC=C(c2ccccc2)CC1 | 36.5 to 37.5
75 | COc1cccc2ccc(CC#N)cc12 | 47 to 48

Row | SMILES | melting point [°C]
76 | Cc1c(OCC(C)(C)CS(N)(=O)=O)nn2ncnc2c1C | 175 to 177
77 | CCOC(=O)c1cc2ccccc2n1S(=O)(=O)c1ccc(C)cc1 | 92 to 95
78 | CCO[C@H](C(=O)N1C(=O)OC[C@@H]1Cc1ccccc1)[C@H](O)c1ccc2oc(Cc3nc(-c4ccccc4)oc3C)cc2c1 | 66
79 | CN(CC(=O)c1cccn1Cc1ccccc1[N+](=O)[O-])Cc1ccccc1 | 103 to 105
80 | CS(=O)(=O)N[C@H]1CC[C@H](Nc2nccc(-n3ncc4ccccc43)n2)CC1 | 270
81 | O=C(NCCOc1ccc(CC(Oc2ccc(Cl)cc2)C(=O)O)cc1)c1ccc(-c2ccccn2)cc1 (stereo not drawn) | 155 to 156
82 | CC(C)(O)c1ccc(CNC(=O)c2cccnc2Oc2cccc(F)c2)cc1 | 106 to 108
83 | Clc1cc(CBr)ccc1-c1ccccc1C1=NNN(C(c2ccccc2)(c2ccccc2)c2ccccc2)N1 | 15 to 60
84 | COc1ccc2c(c1)C(=NO)C(=O)N2c1ccc(F)cc1 | 217 to 219
85 | COc1cccc(CC(=O)O)c1OCCn1cc(C(=O)NCc2ccc(Cl)cc2Cl)c(OC(C)C)n1 | 154 to 155
86 | CCN1CCCC(NC(=O)N2CCN(c3ccccc3)CC2)C1 (stereo not drawn) | 100 to 103
87 | Nc1ncnc2c1c(-c1cccc3[nH]ncc13)nn2Cc1oc2ccccc2c(=O)c1-c1ccccc1 | 248 to 252
88 | COc1cc(C(=O)NS(=O)(=O)c2ccccc2C)ccc1Cn1cc(/C=C/C(=O)N(C)C)c2ccc(/C=C/C(=O)N(C)C)cc21 | 271 to 273
89 | CCCCCn1ncc2c(N)c3c(nc21)CN(Cc1cccc(C(F)(F)F)c1)C3=O | 146 to 148
90 | COc1cc(C=C(C#N)C(=O)Nc2cccc(Cl)c2)cc(Cl)c1O | 225 to 226
91 | CCCS(=O)(=O)c1c(Cl)cnc(Cl)c1Cl | 73 to 78
92 | CCCCOc1ccc(S(=O)(=O)C2(C(=O)NO)CCN(Cc3cccc(OC)c3)CC2)cc1 | 137
93 | N#Cc1ccc(Cl)cc1NC(CCO)c1ccccc1 (stereo not drawn) | 88 to 90
94 | CNC(=O)N(N)CC(C)O (stereo not drawn) | 99 to 101
95 | CCCCCC(=O)c1cc(Cl)ccc1N(CC(=O)OC)S(=O)(=O)c1ccc(C)cc1 | 68 to 70
96 | CCC(CC)Oc1cc(C)nc2c1[nH]c(=O)n2-c1c(C)cc(C)cc1C | 184 to 186
97 | Cn1cc(C(=O)c2ccccn2)cc1C(=O)c1ccc(Cl)cc1 | 138 to 139
98 | CCc1nccn1CCCOCc1cccc(SC)c1NC(=O)CC1c2ccccc2Oc2ccccc21 | 159 to 160

Source: a melting point compilation (Tetko et al.; mined from patent text by program, amines drawn as free bases though some values may be those of a salt)
